Data on three compounds can be found in US12590125B2, “Peptide inhibitors for the inhibition of HIV capsid” (THE CURATORS OF THE UNIVERSITY OF MISSOURI, priority 2019, dated 2026).

Read-outs that look alike come from different tables or passages of the source. Residues, ends and D or L forms follow the SMILES beside them.

The test system of one assay is HIV-1. Conditions: PBMCs, 23 HIV-1 clinical isolates from different subtypes, cited from earlier work.
In assay [1] the test system is HIV. The following applies: MT-4 cells; read-out: EC50, anti-HIV activity; cited from earlier work.
The target of another assay is CA-hexamers. The following applies: read-out: binding affinity of CA-hexamers with PF74 by ITC; isothermal calorimetry, Bhattacharya et al., 2014; cited from earlier work.
Assay [2] has as its system HIV. The following applies: MT-2 cells; cited from earlier work.
A further assay concerns the target HIV-1 CA-hexamers (Human immunodeficiency virus type 1 group M subtype B, UniProt P12493). As to the kind of experiment: biochemical. The class given is binding.

Procedure for HIV-1 CA-hexamers: During the MST experiment, a temperature gradient is induced by an infrared laser. The directed movement of molecules through the temperature gradient is detected and quantified using covalently attached fluorophore.
Fluorescent labeling of CA with Alexa Fluor 647 analog NT647 was performed according to the manufacturer's instructions (MO-L004 Monolith Protein Labeling Kit; NanoTemper Technologies GmbH, Munich, Germany). 20 μM protein was incubated overnight with 3 molar excess of dye at room temperature in a conjugation buffer provided with the labeling kit. The unreacted dye was removed by filtration through a gravity flow column provided with the kit. The elution fractions were collected in 2×MST buffer (100 mM MOPS, pH 7.0, 200 mM NaCl, and 0.2% pluronic F-127). Fluorescence intensity of each fraction was evaluated by MST (Monolith NT.115, NanoTemper Technologies GmbH, Munich, Germany), and fractions containing labelled protein were pooled. Protein concentration was determined by NANODROP (Thermo Scientific, Waltham, MA) spectrophotometer. Aliquots were stored at −80° C. until use. […] The data were analyzed using MO. Affinity software (version 2.3) (NanoTempet Technologies, CA) by fitting the data point to a quadratic equation (Equation 1) and plotting by PRISM (Version 6.0) (GraphPad Inc. La Jolla, CA).

`CC(C)(C#Cc1ccc(-c2ccc(Cl)c3c(NS(C)(=O)=O)nn(CC(F)(F)F)c23)c([C@H](Cc2cc(F)cc(F)c2)NC(=O)Cn2nc(C(F)(F)F)c3c2C(F)(F)[C@@H]2C[C@H]32)n1)S(C)(=O)=O` [GS-6207]: the EC50 in the assay with HIV-1 (read-out: mean EC50) was 0.05 nM; with HIV-1 (read-out: range of EC50 over clinical isolates), 0.02 to 0.16 nM; in the assay with HIV [1], 0.1 nM.

As for `Cc1[nH]c2ccccc2c1CC(=O)N[C@@H](Cc1ccccc1)C(=O)N(C)c1ccccc1` [PF74], the Kd on CA-hexamers is 262 nM. Also, the EC50 in the assay with HIV [2] was 570 nM.

As to `CC(C)[C@@H]1NC(=O)CNC(=O)[C@H](CO)NC(=O)CNC(=O)[C@@H]2CCCN2C(=O)[C@H](Cc2ccccc2)NC(=O)[C@H](CC(N)=O)NC(=O)[C@H](C(C)C)NC(=O)[C@@H]2CCCN2C(=O)CNC(=O)[C@H](Cc2ccccc2)NC(=O)[C@H]([C@@H](C)O)NC(=O)[C@H](Cc2ccccc2)NC1=O` [Pep-2-cyclic] (cyclo(FGPVNFPGSGVFT)), at HIV-1 CA-hexamers, the Kd was 32 ± 3 nM. Also, the “fold better CA binding affinity than PF74” value at HIV-1 CA-hexamers (Pep-2-cyclic vs PF74, MST) is given as around 7 fold.
